Laboratory results as given in PubChem BioAssay (NCI).
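Grown in 96-well plates, cells were treated for 48 hours with each compound at five concentrations. Insufficient inhibition: endpoint recorded as highest concentration tested. At the GI50, growth is halved. TGI: total growth inhibition.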

Assays:
Test in all cases: NCI anticancer screen, dose series, 48 h
[1] = test system: IGROV1 ovarian
[2] = test system: OVCAR-5 ovarian
[3] = test system: SK-MEL-2 melanoma
[4] = test system: RPMI-8226 leukemia
[5] = test system: DU-145 prostate
[6] = test system: TK-10 renal
[7] = test system: RXF 393 renal
[8] = test system: MDA-MB-435
[9] = test system: EKVX NSCLC
[10] = test system: SNB-75 CNS

Structure (SMILES) | GI50 [1] [µM] | TGI [1] [µM] | GI50 [2] [µM] | TGI [2] [µM] | GI50 [3] [µM] | TGI [3] [µM] | GI50 [4] [µM] | TGI [4] [µM] | GI50 [5] [µM] | TGI [5] [µM] | GI50 [6] [µM] | TGI [6] [µM] | GI50 [7] [µM] | TGI [7] [µM] | GI50 [8] [µM] | TGI [8] [µM] | GI50 [9] [µM] | TGI [9] [µM] | GI50 [10] [µM] | TGI [10] [µM]
CC(=O)N1CCN(CCOc2ccc(C3CCN(C4=Nn5c(nnc5C(F)(F)F)CC4)CC3)cc2)CC1 | 17.4 | > 100 | 89.4 | > 100 | 33.7 | > 100 | 4.74 | 79.7 | 63 | > 100 | 7.31 | > 100 | 19.4 | > 66 | 10.2 | > 100 | 14.7 | > 100 | 3.12 | > 100
C1CC[N-]CC1.CC(=N\O)/C(C)=N/O.CC(=N\O)/C(C)=N/O.[CH2-]CCN1CCOCC1.[Co+2] | > 100 | > 100 | > 100 | > 100 | > 100 | > 100 | > 100 | > 100 | > 100 | > 100 | > 100 | > 100 | > 100 | > 100 | > 100 | > 100 | > 100 | > 100 | > 100 | > 100
O=C(/C(=C/c1ccccc1)c1ccccc1)N1c2ccccc2CC1c1c[nH]c2ccccc12 (stereo not given) | – | > 100 | – | > 100 | – | 81.9 | – | > 100 | – | – | – | > 100 | – | > 100 | – | – | – | > 100 | – | > 100
c1ccc(C2[C@@H]3CCCc4ccccc4C3=NN2c2ccccc2)cc1 (stereo not given in full) | – | > 100 | – | > 100 | – | – | – | > 100 | – | – | – | > 100 | – | > 100 | – | – | – | > 100 | – | –
CCOC(=O)/N=c1/nc(N(C)C)ss1 | – | > 100 | – | > 100 | – | > 100 | – | > 100 | – | – | – | > 100 | – | > 100 | – | – | – | > 100 | – | > 100
COC(=O)C1CC(C(=O)OC)c2nc3cc(C)c(C)cc3nc21 (stereo not given) | – | > 100 | – | > 100 | – | > 100 | – | > 100 | – | – | – | > 100 | – | – | – | – | – | > 100 | – | > 100
Cc1ccc(S(=O)OC23CC4CC(CC(C4)C2)C3)cc1 (stereo not given) | – | 85.7 | – | > 100 | – | – | – | > 100 | – | – | – | > 100 | – | > 100 | – | – | – | > 100 | – | > 100
CN(C)CCNc1nc(-c2cccs2)cc(-c2cccs2)n1 | – | 69.2 | – | 23.9 | – | 32.9 | – | – | – | – | – | 29 | – | 28.6 | – | – | – | – | – | 68.2
CCOc1cc(C(C)(C)C)ccc1C1=N[C@@](C)(c2ccc(Cl)cc2)[C@@](C)(c2ccc(Cl)cc2)N1C(=O)N1CCN(CCS(C)(=O)=O)CC1 | 1.49 | 6.54 | 2.46 | 7.8 | 5.29 | 18.3 | 2.49 | 6.77 | 4.85 | 16.1 | 3.12 | 10.3 | 1.76 | 3.74 | 3.47 | 11.7 | – | – | 2.51 | 14.9
COc1ccc(C(=O)O/N=C2/CCC/C2=C\c2ccccc2)cc1 | – | > 100 | – | > 100 | – | > 100 | – | > 100 | – | – | – | > 100 | – | > 100 | – | – | – | > 100 | – | > 92.9
Cc1nnc(-c2ccc(-c3nc4ccccc4o3)cc2)o1 | > 100 | > 100 | 44.8 | > 100 | > 100 | > 100 | > 100 | > 100 | 42.2 | > 100 | > 100 | > 100 | – | – | > 100 | > 100 | 85 | > 100 | – | –
CC(=O)CC(=O)/C=C/c1cccs1 | – | > 100 | – | > 100 | – | > 100 | – | > 100 | – | – | – | > 100 | – | – | – | – | – | > 100 | – | –
Nc1ccc(C(=O)N/C(=C\c2cccc([N+](=O)[O-])c2)c2nc3c4c(ccc3[nH]2)C(=O)c2ccccc2C4=O)cc1 | – | > 100 | – | > 100 | – | > 100 | – | > 100 | – | – | – | 77 | – | 57.7 | – | – | – | > 100 | – | 17.8
Nc1c(C(=O)Nc2cccc(Br)c2)sc2nc3c(cc12)C(O)CCC3 (stereo not given) | 0.833 | > 70.3 | 3.37 | 60 | 0.484 | 36.8 | 0.404 | 23.5 | 0.455 | 22.4 | 14.2 | 51.6 | 0.361 | 6.26 | 0.115 | 0.35 | – | – | 0.359 | 17.5
O=C(c1ccccc1)C1C(C(=O)c2ccccc2)C(c2ccccc2)N(c2ccccc2)C1c1ccccc1 (stereo not given) | – | > 100 | – | > 100 | – | > 100 | – | > 100 | – | > 100 | – | > 100 | – | > 100 | – | > 100 | – | > 100 | – | –
COc1ccc2nc3cccc(C(=O)NCCN(C)C)c3nc2c1 | – | > 48.2 | – | 6.17 | – | 3.68 | – | 27.6 | – | – | – | 8.6 | – | 3.21 | – | – | – | 12.7 | – | 21.6
C#CCN(Cc1nc2cc(C(F)(F)F)ccc2nc1-c1ccccc1)c1ccc(F)c(F)c1 | 68.1 | > 100 | > 100 | > 100 | – | – | 22.1 | 82.7 | 37.3 | > 100 | > 100 | > 100 | 22.9 | 92.5 | 37.8 | > 100 | 17 | 57.2 | > 100 | > 100
C[N+](C)(C)CC1CCCC/C1=N\O (stereo not given) | – | > 100 | – | > 100 | – | > 100 | – | > 100 | – | – | – | > 100 | – | > 100 | – | – | – | > 100 | – | –
OCC(O)C(OC1OC(CO)C(O)C(O)C1O)c1nn(-c2ccccc2)c2nc3cc(Cl)ccc3nc12 (stereo not given) | – | – | – | > 100 | – | – | – | > 100 | – | – | – | > 100 | – | > 100 | – | – | – | > 100 | – | > 100
Cc1ncc([N+](=O)[O-])n1CCNC(=O)CCCCCn1ccnc1[N+](=O)[O-] | – | > 100 | – | > 100 | – | > 100 | – | – | – | > 100 | – | – | – | – | – | > 100 | – | – | – | > 100
